Results taken from the NIST ThermoML archive (doi:10.1021/je5003779).

Tests used:
[1] = refractive index (other wavelength) (dimensionless); xn = mol fraction of the nth substance listed; conditions: 296.27 K, 101 kPa, Liquid, Wavelength=632.8 nm, Standard Abbe refractometry
[2] = heat capacity at constant pressure per volume; xn = mol fraction of the nth substance listed; conditions: 101 kPa, Liquid, Differential Scanning Calorimeter, x1 = 0.133
[3] = refractive index (other wavelength) (dimensionless); conditions: 101.3 kPa, Liquid, Wavelength=632.8 nm, Standard Abbe refractometry

CCn1cc[n+](C)c1.O=S(=O)([N-]S(=O)(=O)C(F)(F)F)C(F)(F)F + CCCO
Conditions	heat capacity [J/K/m3]	refractive index
[1], x1 = 0.021	–	1.3854
[1], x1 = 0.056	–	1.3896
[1], x1 = 0.097	–	1.3935
[1], x1 = 0.142	–	1.3971
[1], x1 = 0.149	–	1.3977
[1], x1 = 0.192	–	1.4006
[1], x1 = 0.243	–	1.4036
[1], x1 = 0.306	–	1.4064
[1], x1 = 0.397	–	1.4099
[1], x1 = 0.502	–	1.4131
[1], x1 = 0.699	–	1.4174
[1], x1 = 0.855	–	1.4199
[1], x1 = 1	–	1.4222
[2], 295 K	2448000	–
[2], 296 K	2164000	–
[2], 297 K	2118000	–
[2], 298 K	2122000	–
[2], 299 K	2105000	–
[2], 300 K	2103000	–
[2], 301 K	2101000	–
[2], 302 K	2082000	–
[2], 303 K	2087000	–
[2], 304.01 K	2092000	–
[2], 305 K	2090000	–
[2], 306 K	2090000	–
[2], 307 K	2094000	–
[2], 308 K	2095000	–
[2], 309 K	2098000	–
[2], 310 K	2097000	–
[2], 311 K	2098000	–
[2], 312 K	2102000	–
[2], 313 K	2103000	–
[2], 314 K	2103000	–
[2], 315 K	2108000	–
[2], 316 K	2108000	–
[2], 317 K	2111000	–
[2], 318 K	2113000	–
[2], 319 K	2114000	–
[2], 320 K	2117000	–
[2], 321 K	2117000	–
[2], 322 K	2121000	–
[2], 323 K	2124000	–
[2], 324 K	2125000	–
[2], 325 K	2124000	–
[2], 326 K	2129000	–
[2], 327 K	2131000	–
[2], 328 K	2133000	–
[2], 329.01 K	2135000	–
[2], 330 K	2134000	–
[2], 331 K	2139000	–

CCCO [propan-1-ol]
[3]
Conditions	refractive index
284.73 K	1.387
286.91 K	1.3861
288.21 K	1.3856
289.24 K	1.3851
290.26 K	1.3847
291.26 K	1.3843
292.59 K	1.3837
293.69 K	1.3833
296.27 K	1.3823

CCn1cc[n+](C)c1.O=S(=O)([N-]S(=O)(=O)C(F)(F)F)C(F)(F)F
[3]
Conditions	refractive index
285.03 K	1.4252
287.17 K	1.4246
288.97 K	1.4242
290.28 K	1.4238
291.11 K	1.4236
292.19 K	1.4233
293.16 K	1.423
294.21 K	1.4227
295.18 K	1.4225
297.26 K	1.4219

CCCO [propan-1-ol] + CCn1cc[n+](C)c1.O=S(=O)([N-]S(=O)(=O)C(F)(F)F)C(F)(F)F
Conditions	refractive index
[1], x2 = 0	1.3823
